Reference: patent publication US20180071354A1, “SELECTIVE BREEDING METHOD OF ANTITUMOR/ANTICANCER CAMELLIA SINENSIS STRAIN, AND TEA PRODUCT OF SUCH STRAIN” (FUJIAN AGRICULTURE AND FORESTRY UNIVERSITY, priority 2015, published 2018)
In brackets after ≈: the same amount, converted by molar mass.

Assays:
[1] = system: human liver cancer cell line HepG2; experiment: In vitro antitumor/anticancer testing (CCK-8), HepG2; assay type: cell-based; conditions: 48 h
Protocol: Each of Tea Product 1 and Conventional Tea Product obtained in section A of this example was used to prepare test tea samples according to the method described below. A proper amount of the respective tea product was added into sterile water to prepare a stock solution with a concentration of 100 mg/mL, followed by using a membrane filter with a pore size of 0.22 μm to conduct vacuum filtration and sterilization. The resulting stock solution was diluted with a respective complete medium shown in Table 3 below to form test tea samples with different concentrations. In other words, the thus obtained test tea samples to be used for treating a respective cancer/tumor cell line shown in Table 3 were prepared using the same complete medium as that for the respective cancer/tumor cell line.
Specifically, each of the aforesaid commercially available agents was subjected to the method described below to prepare comparative test samples. A proper amount of a respective commercially available agent was dissolved in phosphate-buffered saline (PBS) to prepare a stock solution with a concentration of 5 mg/mL, followed by using a membrane filter with a pore size of 0.22 μm to conduct vacuum filtration and sterilization. The resulting stock solution was diluted with a respective complete medium shown in Table 3 below to form comparative test samples with different concentrations. To be specific, the comparative test samples prepared from the respective commercially available agent have the concentrations shown in Table 2 below. The thus obtained comparative test samples to be used for treating a respective cancer/tumor cell line shown in Table 3 were prepared using the same complete medium as that for the respective cancer/tumor cell line.
The following cancer/tumor cells purchased from Chinese Academy of Sciences, Shanghai Institutes for Biological Sciences, Institute of Biochemistry and Cell Biology were used for in vitro antitumor/anticancer testing: human liver cancer cell line HepG2, human ovarian cancer cell line SK-OV-3, human cervical cancer cell line Hela, human lung cancer cell line A549, human glioblastoma cell line U-87MG, human mammary gland/duct cancer cell line BT-474, human prostate cancer cell line PC-3, human leukemia cell line HL-60, human gastric cancer cell line SMMC-7721, human colon cancer cell line HCT-116, human squamous cell carcinoma cell line A431, human leukemia cell line K562, human pancreatic cancer cell line PANC-1, and human gastric cancer cell line BGC-823.
The cultivation of each cancer/tumor cell line is described as follows. The cancer/tumor cancer cells were cultivated in the respective complete medium supplemented with 100 μg/mL penicillin and 100 μg/mL streptomycin in an incubator (37° C., 100% relative humidity, 5% CO2). When adherent cancer/tumor cells reached 80% confluence during the log-phase, cell detachment was conducted using 0.6 mL of 0.3% trypsin. Afterwards, a cell suspension having a cell density of 1.0×10^4 cells/mL was prepared. 100 μL of the cell suspension (i.e. 1000 cancer/tumor cells) was added into wells of a 96-well plate (Cat. No. 3599, Corning Costar), followed by cultivation in an incubator (37° C., 100% relative humidity, 5% CO2) for 24 hours.
As experimental groups, the tumor/cancer cells of each cell line were treated with the test tea samples prepared from one or more of the tea products and the comparative test samples prepared from one or more of the commercially available agents as obtained in section B of this example (for more detailed information about the tea product(s) and the commercially available product (s) used to treat each cell line, please see Table 4 below). To be specific, 6 to 10 test tea samples prepared from the same tea product and having different concentrations, as well as 6 to 10 comparative test samples prepared from the same commercially available agent and having different concentrations, were utilized to treat the tumor/cancer cells of each cell line. […]

[2] = system: HepG2 transplanted tumor (inoculated tumor tissue pieces); experiment: In vivo antitumor testing, second and third experiments (Animal Model 2); design: species or system BALB/c nude mice; conditions: second experiment
Protocol: The establishment of Animal Model 2 is described below. Male BALB/c nude mice (5 to 6 weeks of age, a body weight of 15 to 16 g, certificate number: SCXK (Hu) 2012-0002) were purchased from Shanghai Silaike Experiment Animal Co., Ltd and were acclimatized for one week. A cell suspension of HepG2 cells having a concentration of 1×10^7 cells/mL was prepared using the same method as that for preparing the cell suspension for Animal Model 1. 0.2 mL of the cell suspension was subcutaneously injected into the back of each of 5 nude mice. […] Tea Product 1 and Conventional Tea Product obtained in section A of Example 3, as well as 5-fluorouracil mentioned in section B of Example 3, were examined for their in vivo antitumor activity. […] In the third experiment, nude mice of Animal Model 2 were divided into three groups, i.e. a control group (n=11), a Tea Product 1 group (n=11), and a Conventional Tea Product group (n=8). […] In all the three experiments above, each of the nude mice was sacrificed 24 hours after the termination of the treatment. The tumor was collected and weighed. The antitumor effect of a respective test substance was evaluated by virtue of the percent tumor growth inhibition (%), which was calculated using the following Equation II: E=[(F−G)/(F)]×100% (I) • E=percent tumor growth inhibition (%) • F=tumor weight of control group • G=tumor weight of respective test substance group The experimental data are expressed as mean±SEM (standard error of the mean). The experimental data were subjected to one-way analysis of variance (ANOVA) using SPSS (Statistical Package for Social Sciences) software package version 11.5, such that the difference between the groups could be evaluated. The data regarding the tumor weights of the groups were subjected to t-test. Statistical significance is indicated by p<0.05.

[3] = 35 days, 5-fluorouracil 15.0 mg/kg per day intra-abdominal injection, Tea Product 1 0.6 mL of 10% per day intragastric gavage

Structure (SMILES): O=c1[nH]cc(F)c(=O)[nH]1 [5-fluorouracil]
- inhibition at 0.078125 µg/mL ([1]; 0.078125 μg/mL, read-out: Percent growth inhibition): 10.9%
- inhibition at 0.15625 µg/mL ([1]; 0.15625 μg/mL, read-out: Percent growth inhibition): 24.5%
- inhibition at 0.3125 µg/mL ([1]; 0.3125 μg/mL, read-out: Percent growth inhibition): 37.5%
- inhibition at 0.625 µg/mL ([1]; 0.625 μg/mL, read-out: Percent growth inhibition): 63.7%
- inhibition at 1.25 µg/mL ([1]; 1.25 μg/mL, read-out: Percent growth inhibition): 83.3%
- inhibition at 2.5 µg/mL ([1]; 2.5 μg/mL, read-out: Percent growth inhibition): 86%
- inhibition at 5 µg/mL ([1]; 5 μg/mL, read-out: Percent growth inhibition): 89.1%
- IC50 ([1]; Table 5 concentration series): 0.457 µg/mL (≈ 3.52 µM)
- Body weight Before treatment ([2]; Animal Model 2, baseline): 17.22 g
- Body weight After treatment [2, 3]: 24.32 g
- Percent tumor growth inhibition [2, 3]: 48.96%
- Tumor weight [2, 3]: 0.034 g
